US7262173B2, “Chemosensitizing with liposomes containing oligonucleotides” (Georgetown University, priority 1997, dated 2007)

How the values were obtained:
Raf-1 [1] = assay: Raf-1 expression in normal mouse tissues after i.v. ODN; assay type: in vivo, Balb/c nu/nu mice; details: i.v. 6 mg/kg daily for 5 days
Experimental: (§1) FIG. 7: Effects of intravenous administration of LE-ATG-AS raf ODN (SEQ ID NO:1) our Raf-1 expression in normal and tumor tissues. Raf-1 expression was examined in liver, kidneys and SQ-20B tumor xenograft of Balb/c nu/nu mice after i.v. injections of 6 mg/kg daily dose of LE-ATG-AS raf ODN (SEQ ID NO:1) (AS) or LE-ATG-S raf ODN (SEQ ID NO:3) (S) for five consecutive days. Control mice (C) received normal saline. Representative data showing Raf-1 expression in lysates normalized for protein content by immunoprecipitation and immunoblotting (top). Quantification data are shown as mean±s.d. from three mice (bottom).
Logarithmically growing SQ-20B cells were injected subcutaneously (2×10^6 cells) in the flank regions on both sides in male Balb/c nu/nu mice under mild anesthesia. Tumors were allowed to grow to a mean tumor volume of 115 mm^3 before initiation of ODN treatment. Two treatment routes were followed: intravenous and intratumoral. For intravenous delivery, mice were randomly divided into six groups. […]
(§2) For in vivo expression studies, tumor tissue and organs were homogenized in the cell lysis buffer using Polytron homogenizer (Westbury, N.Y., USA). Raf-1 expression was analyzed in tissue homogenates by immunoprecipitation and immunoblotting as described above.

Raf-1 [2] = assay: Raf-1 expression in SQ-20B tumor xenografts after i.v. or intratumoral ODN; assay type: in vivo, human; details: intravenous treatment; compared with untreated controls
Experimental: as §1
FIG. 8: Inhibition of Raf-1 protein expression in SQ-20B tumor xenografts by intratumoral administration of LE-ATG-AS raf ODN (SEQ ID NO:1): Each animal received intratumoral injections of LE-ATG-AS raf ODN (SEQ ID NO:1) (AS) on the right flank and LE-ATG-S raf ODN (SEQ ID NO:3) (S) on the left flank at a dose of 4 mg/kg daily for seven days as explained in the experimental procedures. […] Quantification data shown are mean±s.d., from three representative mice. […]
as §2

5′-GTG-CTCCATTGATGC-3′ (antisense GTGCTCCATTGATGC; DNA, linkages s1 o12 s1 (s phosphorothioate, o phosphodiester), methylation of C not given here) [ATG-AS raf ODN, antisense ODN to translation initiation site of human c-raf-1 cDNA; one terminal base linkage at each end phosphorothioate]
inhibition of Raf-1 expression in normal tissues (Raf-1 [1]): No inhibition
effect on Raf-1 expression in tumor tissue (Raf-1 [2]): no effect
